Tested on: adult patients with early type 2 diabetes mellitus and increased CV risk or established complications
Test: Cardiovascular Safety Trial (linagliptin versus glimepiride)
Format: in vivo
Experimental: The effect of linagliptin on cardiovascular risk in adult patients with early type 2 diabetes mellitus and increased CV risk or established complications was evaluated in this Cardiovascular Safety Trial, a multi-center, multi-national, randomized, double-blind parallel group trial. The trial compared the risk of experiencing a major adverse cardiovascular event (MACE) between linagliptin and glimepiride when these were added to standard of care (including background therapy with metformin) based on regional standards for HbA1c and CV risk factors. The trial was event driven and patients were followed until at least 631 primary outcome events accrued.
A total of 6033 patients were treated (linagliptin 5 mg=3023; glimepiride 1 mg to 4 mg=3010) and followed for a median of 6.25 years (median time on treatment 5.9 years). Approximately 73% of the study population was Caucasian, 18% was Asian, and 5% was Black. The mean age was 64 years and 60% were male.
At baseline, disease characteristics were balanced. […] The trial population included 2030 (34%) patients ≥70 years of age, 2089 (35%) patients with cardiovascular disease, and 1130 (19%) patients with renal impairment with an eGFR <60 mL/min/1.73 m2 at baseline. Overall, the previous use of diabetes medications was balanced across treatment groups (metformin 83% continued as background therapy, sulfonylurea 28% discontinued prior to randomization), patients on insulin were excluded. The use of medications to reduce cardiovascular risk was also balanced (aspirin 47%, statins 65%, ACE inhibitors or ARBs 74%, beta blockers 39%, and calcium channel blockers 30%).
The primary endpoint in this Cardiovascular Safety Trial was the time to first occurrence of three point (3P) MACE. A major adverse cardiac event was defined as a cardiovascular death or a nonfatal myocardial infarction (MI) or a nonfatal stroke. The statistical analysis plan tested for non-inferiority for the occurrence of 3P MACE. The key secondary endpoint evaluated the composite of treatment sustainability defined as the proportion of patients on study treatment, that maintain glycemic control (HbA1c≤7.0%) without need for additional antidiabetic drug therapy (rescue medication), without any moderate (symptomatic with glucose value <70 mg/dL) or severe (requiring assistance) hypoglycemic episodes, and without >2% weight gain from baseline.
Cardiovascular Outcome Trial of Linagliptin Versus Glimepriride in Type 2 Diabetes—assessing long-term cardiovascular impact of linagliptin versus the sulphonylurea glimepiride in subjects with early type 2 diabetes and increased cardiovascular risk or established complications. […]
Type 2 diabetes patient with insufficient glycemic control (naïve or currently treated (mono or dual therapy) with e.g. metformin and/or an alpha-glucosidase inhibitor (e.g. having HbA1c 6.5-8.5%), or currently treated (mono or dual therapy) with e.g. a sulphonylurea or glinide, with or without metformin or an alpha-glucosidase inhibitor (e.g. having HbA1c 6.5-7.5%)) and increased or high risk of cardiovascular events, e.g. defined as one or more of risk factors A), B), C) and D) indicated below, are randomized* and treated over a lengthy period (e.g. up to 432 weeks) with linagliptin (5 mg, q.d., optionally in combination with one or more other active substances, e.g. such as added to existing antidiabetic background) and compared with patients treated with the sulphonylurea glimepiride (1-4 mg once daily). * Upon randomization, if a patient is on a SU or glinide, this secretagogue therapy is discontinued and replaced with study medication. For patients not on a secretagogue, study medication is added to the existing regimen.
Time to first occurrence of any of the following adjudicated components of the primary composite endpoint: […]

[1] = baseline to Final Visit, observed cases including values after rescue medication
[2] = both, human, in vivo, 5.9 years
[3] = both, human, in vivo, 6.25 years
[4] = component of secondary composite
[5] = from end of titration (16 weeks) to final visit
[6] = median follow-up 6.25 years, listed as linagliptin

Q: Which results are given for `CC#CCn1c(N2CCC[C@@H](N)C2)nc2c1c(=O)n(Cc1nc(C)c3ccccc3n1)c(=O)n2C` [Linagliptin, 1-[(4-methyl-quinazolin-2-yl)methyl]-3-methyl-7-(2-butyn-1-yl)-8-(3-(R)-amino-piperidin-1-yl)-xanthine]?
A: patients with macroalbuminuria (>300 mg/g) (at Final Visit): 1.4%; patients with microalbuminuria (≥30 to ≤300 mg/g) (at Final Visit): 14.1%; patients with normal UACR (<30 mg/g) (at baseline and at Final Visit): 58.4%; HBA1c, Change from baseline, adjusted mean (baseline to Final Visit, all observed cases): 0.06%; Creatinine, Change from baseline, adjusted mean [1]: 0.08 mg/dL; HDL, Change from baseline, adjusted mean [1]: 0.7 mg/dL; LDL, Change from baseline, adjusted mean [1]: -6.1 mg/dL; Total cholesterol, Change from baseline, adjusted mean [1]: -5.4 mg/dL; Triglyceride, Change from baseline, adjusted mean [1]: 1.7 mg/dL; Urinary albumin, Change from baseline, adjusted mean [1]: 43.4 mg/dL; third key secondary endpoint of treatment sustainability (on medication, HbA1c≤7.0%, no rescue, no >2% weight gain), responders (between Visit 6 and Final Visit): 17.4%; Hospitalization for heart failure (HHF), Incidence Rate per 1000 PY (both, human, in vivo): 6.4 per 1000 PY; Hospitalization for heart failure (HHF), Number of Subjects (both, human, in vivo): 112; Moderate/severe hypoglycaemic episodes, odds ratio (both, human, in vivo): 0.16; Patients with any moderate/severe hypoglycemic episodes, Number of Subjects (both, human, in vivo): 163; Patients with any moderate/severe hypoglycemic episodes, Subjects (%) (both, human, in vivo): 5.6%; Secondary CV composite (4P-MACE), Incidence Rate per 1000 PY (both, human, in vivo): 23.4 per 1000 PY; rate of moderate or severe hypoglycemia [2]: 6.5%; severe hypoglycemia (requiring assistance) [2]: 0.3%; Premature discontinuation from trial medication due to adverse events [3]: 15.1%; Primary CV composite (3P-MACE), Hazard Ratio [3]: 0.98; Primary CV composite (3P-MACE), Incidence Rate per 1000 PY [3]: 20.7 per 1000 PY; Secondary CV composite (4P-MACE), Hazard Ratio [3]: 0.99; all-cause mortality, incidence rate per 1000 years at risk [3]: 16.8 per 1000 years at risk; any adjudicated event (secondary CV endpoint), % of patients [3]: 17.1%; any adjudicated event, HR [3]: 0.96; hospitalisation for heart failure combined with CV death, incidence rate per 1000 years at risk [3]: 13.4 per 1000 years at risk; hospitalisation for heart failure, incidence rate per 1000 years at risk [3]: 6.4 per 1000 years at risk; investigator-reported heart failure AEs, % of patients [3]: 5.5%; investigator-reported heart failure AEs, HR [3]: 1.06; investigator-reported heart failure AEs, incidence rate per 1000 years at risk [3]: 9.5 per 1000 years at risk; non-CV death, % of patients [3]: 4.6%; non-CV death, incidence rate per 1000 years at risk [3]: 7.6 per 1000 years at risk; proportion of patients with CV death contributing to the 3P-MACE [3]: 4.3%; proportion of patients with CV death contributing to the 4P-MACE [3]: 4.1%; proportion of patients with hospitalisation for unstable angina pectoris contributing to the 4P-MACE [3]: 1.9%; proportion of patients with non-fatal MI contributing to the 3P-MACE [3]: 4.7%; proportion of patients with non-fatal MI contributing to the 4P-MACE [3]: 4.4%; proportion of patients with non-fatal stroke contributing to the 3P-MACE [3]: 2.8%; proportion of patients with non-fatal stroke contributing to the 4P-MACE [3]: 2.8%; Creatinine, Comparison vs. glimepiride, Adjusted mean (change baseline to Final Visit): -0.01 mg/dL; FPG, Comparison vs. glimepiride, Adjusted mean (change baseline to Final Visit): -7.3 mg/dL; HBA1c, Comparison vs. glimepiride, Adjusted mean (change baseline to Final Visit): −0.09%; HDL, Comparison vs. glimepiride, Adjusted mean (change baseline to Final Visit): 0.5 mg/dL; LDL, Comparison vs. glimepiride, Adjusted mean (change baseline to Final Visit): 0.4 mg/dL; Total cholesterol, Comparison vs. glimepiride, Adjusted mean (change baseline to Final Visit): -0.4 mg/dL; Triglyceride, Comparison vs. glimepiride, Adjusted mean (change baseline to Final Visit): -3.5 mg/dL; Urinary albumin, Comparison vs. glimepiride, Adjusted mean (change baseline to Final Visit): -1.9 mg/dL; Patients with maintained glycemic control (HbA1c ≤7.0%), Number of Subjects [4]: 648; Patients with maintained glycemic control (HbA1c ≤7.0%), Subjects (%) [4]: 21.5%; Patients with ≤2% weight gain, Number of Subjects [4]: 775; Patients with ≤2% weight gain, Subjects (%) [4]: 25.7%; Secondary composite of treatment sustainability (on treatment, HbA1c ≤7.0%, no rescue, no moderate/severe hypoglycemic episodes, no >2% weight gain), Number of Subjects [5]: 481; Secondary composite of treatment sustainability (second key secondary endpoint), Subjects (%) [5]: 16.0%; first intake of rescue medication, incidence rate per 1000 years at risk (in vivo): 128.6 per 1000 years at risk; rate of patients who used rescue medication (in vivo): 49.3%; safety profile in this trial population (in words) (in vivo): no new safety signal; time to 3P-MACE, non-inferiority test (in words) (in vivo): non-inferior; weight, adjusted mean difference (linagliptin compared with glimepiride over time): -1.61 kg; All-cause mortality, Hazard Ratio (linagliptin vs glimepiride): 0.91; HHF or CV death, Hazard Ratio (linagliptin vs glimepiride): 1.00; non-CV death, hazard ratio (linagliptin vs glimepiride): 0.82; third key secondary endpoint of treatment sustainability, OR (linagliptin vs glimepiride): 1.29; HHF or CV death, Hazard Ratio (linagliptin vs glimepiride, listed as linagliptin): 1.00; Secondary composite of treatment sustainability (second key secondary endpoint), Odds Ratio (linagliptin vs glimepiride, logistic regression): 1.68; All-cause mortality, Incidence Rate per 1000 PY (median follow-up 6.25 years): 16.8 per 1000 PY; All-cause mortality, Number of Subjects (median follow-up 6.25 years): 308; All-cause mortality, Subjects (%) (median follow-up 6.25 years): (10.2) %; HHF or CV death, Incidence Rate per 1000 PY (median follow-up 6.25 years): 13.4 per 1000 PY; HHF or CV death, Number of Subjects (median follow-up 6.25 years): 236; HHF or CV death, Subjects (%) (median follow-up 6.25 years): (7.8) %; Secondary CV composite (cardiovascular death, non-fatal MI, non-fatal stroke and hospitalization for unstable angina; 4P-MACE), Number of Subjects (median follow-up 6.25 years): 398; Primary CV composite (cardiovascular death, non-fatal MI, non-fatal stroke; 3P-MACE), Number of Subjects (median follow-up 6.25 years, added to standard of care): 356; All-cause mortality, Subjects (%) [6]: 10.2%; HHF or CV death, Subjects (%) [6]: 7.8%; weight change (in words) (over time): modest decrease in weight
